Here are results for 27 compounds from patent publication US10800792B2, “Inhibitors of Bruton's tyrosine kinase and method of their use” (JANSSEN PHARMACEUTICA NV, priority 2015, dated 2020).

This test concerns the target unphosphorylated-BTK kinase domain (UP-BTK), GST-tagged human BTK (389-659aa) (Homo sapiens (Human), UniProt Q06187). The experiment in a line: BTK kinase Lanthascreen binding assay. The conditions noted are these: unphosphorylated-BTK kinase domain, 50 nM Tracer 236, 60 minutes, pIC50 = negative log of the IC50 in molar; for IC50: read-out: BTK_I_binding pIC50 (converted). The gist of the method:
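Tracer-displacement binding assay against the non-phosphorylated enzyme, read by Lanthascreen. Reported: pIC50.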

Chain of unphosphorylated-BTK kinase domain (UP-BTK), GST-tagged human BTK (389-659aa) (Q06187 389-659): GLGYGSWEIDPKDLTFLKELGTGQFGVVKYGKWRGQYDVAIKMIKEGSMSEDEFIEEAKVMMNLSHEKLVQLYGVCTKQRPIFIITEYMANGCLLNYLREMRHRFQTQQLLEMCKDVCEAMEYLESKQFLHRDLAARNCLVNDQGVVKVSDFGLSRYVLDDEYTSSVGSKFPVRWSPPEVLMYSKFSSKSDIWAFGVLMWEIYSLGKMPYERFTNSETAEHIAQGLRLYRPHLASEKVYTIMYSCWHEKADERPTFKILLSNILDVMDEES

In the case of `Cc1cc(Oc2ccccc2)ccc1N1C(=O)Nc2c(C(=O)N[C@@H]3CCCN(C(=O)CCl)C3)sc3nccc1c23` [Example 396, (R)—N-(1-(2-Chloroacetyl)piperidin-3-yl)-5-(2-methyl-4-phenoxyphenyl)-4-oxo-4,5-dihydro-3H-1-thia-3,5,8-triazaacenaphthylene-2-carboxamide], the “BTK_I_binding pIC50” value was 7.8. Still for that read-out and setting: the value for `C=CC(=O)N1CCC[C@@H](NC(=O)c2sc3nccc4c3c2NC(=O)N4c2ccc(-c3cccs3)cc2)C1` [Example 397, (R)—N-(1-Acryloylpiperidin-3-yl)-4-oxo-5-(4-(thiophen-2-yl)phenyl)-4,5-dihydro-3H-1-thia-3,5,8-triazaacenaphthylene-2-carboxamide] was 6.4.

Take `CC(C)Oc1ccc(N2C(=O)Nc3c(C(=O)N[C@@H]4CCCN(C(=O)/C(C#N)=C/C5CC5)C4)sc4nccc2c34)cc1` [Example 399, (R,E)-N-(1-(2-Cyano-3-cyclopropylacryloyl)piperidin-3-yl)-5-(4-isopropoxyphenyl)-4-oxo-4,5-dihydro-3H-1-thia-3,5,8-triazaacenaphthylene-2-carboxamide]: the “BTK_I_binding pIC50” value stood at 7.5. Take `C=CC(=O)N1CCC[C@@H](NC(=O)c2sc3nccc4c3c2NC(=O)N4c2ccc(OC(C)C)cc2)C1` [Example 400, (R)—N-(1-Acryloylpiperidin-3-yl)-5-(4-isopropoxyphenyl)-4-oxo-4,5-dihydro-3H-1-thia-3,5,8-triazaacenaphthylene-2-carboxamide]: the “BTK_I_binding pIC50” value was 6.9. Still for that read-out and setting: the figure for `C/C(=C\C1CC1)C(=O)N1CCC[C@@H](NC(=O)c2sc3nccc4c3c2NC(=O)N4c2ccc(Oc3ccccc3)cc2C)C1` [Example 401, (R,E)-N-(1-(3-Cyclopropyl-2-methylacryloyl)piperidin-3-yl)-5-(2-methyl-4-phenoxyphenyl)-4-oxo-4,5-dihydro-3H-1-thia-3,5,8-triazaacenaphthylene-2-carboxamide] is 6.5.

On to `Cc1cc(Oc2ccccc2)ccc1N1C(=O)Nc2c(C(=O)N[C@@H]3CCCN(C(=O)/C=C/CN4CCOCC4)C3)sc3nccc1c23` [Example 403, (R,E)-5-(2-Methyl-4-phenoxyphenyl)-N-(1-(4-morpholinobut-2-enoyl)piperidin-3-yl)-4-oxo-4,5-dihydro-3H-1-thia-3,5,8-triazaacenaphthylene-2-carboxamide], for which the “BTK_I_binding pIC50” value is 6.4. On the same count and under the same terms, the value for `C=CC(=O)N1CCC[C@@H](NC(=O)c2sc3nccc4c3c2NC(=O)N4c2ccc3sccc3c2)C1` [Example 404, (R)—N-(1-Acryloylpiperidin-3-yl)-5-(benzo[b]thiophen-5-yl)-4-oxo-4,5-dihydro-3H-1-thia-3,5,8-triazaacenaphthylene-2-carboxamide] was 6.1. `CC(C)Oc1ccc(N2C(=O)Nc3c(C(=O)N[C@@H]4CCCNC4)sc4nccc2c34)cc1` [Example 405, (R)-5-(4-Isopropoxyphenyl)-4-oxo-N-(piperidin-3-yl)-4,5-dihydro-3H-1-thia-3,5,8-triazaacenaphthylene-2-carboxamide]: the IC50 was 3.16 µM. For `CCC(=O)N1CCC[C@@H](NC(=O)c2sc3nccc4c3c2NC(=O)N4c2ccc(OC(C)C)cc2)C1` [Example 406, (R)-5-(4-Isopropoxyphenyl)-4-oxo-N-(1-propionylpiperidin-3-yl)-4,5-dihydro-3H-1-thia-3,5,8-triazaacenaphthylene-2-carboxamide], the “BTK_I_binding pIC50” value is on record as 5.2. On the same count and under the same terms, the figure for `O=C(N[C@@H]1CCCNC1)c1sc2nccc3c2c1NC(=O)N3c1ccc(-c2cccs2)cc1` [Example 407, (R)-4-Oxo-N-(piperidin-3-yl)-5-(4-(thiophen-2-yl)phenyl)-4,5-dihydro-3H-1-thia-3,5,8-triazaacenaphthylene-2-carboxamide] is 5.1. Still for that read-out and setting: the value for `C=CC(=O)N1CCC[C@@H](NC(=O)c2sc3nccc4c3c2NC(=O)N4Cc2ccc(Oc3ccccc3)cc2)C1` [Example 408, (R)—N-(1-Acryloylpiperidin-3-yl)-4-oxo-5-(4-phenoxybenzyl)-4,5-dihydro-3H-1-thia-3,5,8-triazaacenaphthylene-2-carboxamide] was 5.1; that for `CN1CC[C@@H](NC(=O)c2sc3nccc4c3c2NC(=O)N4Cc2ccc(Oc3ccccc3)cc2)C1` [Example 409, (R)—N-(1-Methylpyrrolidin-3-yl)-4-oxo-5-(4-phenoxybenzyl)-4,5-dihydro-3H-1-thia-3,5,8-triazaacenaphthylene-2-carboxamide] was 5.0. Still for that read-out and setting: the value for `O=C(N[C@@H]1CCCNC1)c1sc2nccc3c2c1NC(=O)N3c1ccc2sccc2c1` [Example 410, (R)-5-(Benzo[b]thiophen-5-yl)-4-oxo-N-(piperidin-3-yl)-4,5-dihydro-3H-1-thia-3,5,8-triazaacenaphthylene-2-carboxamide] was 5.0. Turning to `CN1CCC[C@@H](NC(=O)c2sc3nccc4c3c2NC(=O)N4Cc2ccc(Oc3ccccc3)cc2)C1` [Example 411, (R)—N-(1-Methylpiperidin-3-yl)-4-oxo-5-(4-phenoxybenzyl)-4,5-dihydro-3H-1-thia-3,5,8-triazaacenaphthylene-2-carboxamide], the “BTK_I_binding pIC50” value was under 5. Same read-out and setting: the figure for `O=C(N[C@@H]1CCCNC1)c1sc2nccc3c2c1NC(=O)N3Cc1ccc(Oc2ccccc2)cc1` [Example 412, (R)-4-Oxo-5-(4-phenoxybenzyl)-N-(piperidin-3-yl)-4,5-dihydro-3H-1-thia-3,5,8-triazaacenaphthylene-2-carboxamide] is under 5. For `Cc1cc(OC(F)(F)F)ccc1N1C(=O)Nc2c(C(=O)N[C@@H]3CCCNC3)sc3nccc1c23` [Example 413, (R)-5-(2-Methyl-4-(trifluoromethoxy)phenyl)-4-oxo-N-(piperidin-3-yl)-4,5-dihydro-3H-1-thia-3,5,8-triazaacenaphthylene-2-carboxamide], the IC50 is 2.51 µM. On to `C=CC(=O)N1CCC[C@@H](NC(=O)c2sc3nccc4c3c2NC(=O)N4c2ccc(OC(F)(F)F)cc2C)C1` [Example 414, (R)—N-(1-Acryloylpiperidin-3-yl)-5-(2-methyl-4-(trifluoromethoxy)phenyl)-4-oxo-4,5-dihydro-3H-1-thia-3,5,8-triazaacenaphthylene-2-carboxamide], for which the “BTK_I_binding pIC50” value amounted to 7.4. `O=C(N[C@@H]1CCCNC1)c1sc2nccc3c2c1NC(=O)N3c1ccc(OC(F)(F)F)cc1` [Example 415, (R)-4-Oxo-N-(piperidin-3-yl)-5-(4-(trifluoromethoxy)phenyl)-4,5-dihydro-3H-1-thia-3,5,8-triazaacenaphthylene-2-carboxamide]: the IC50 was 6.31 µM. Regarding `C=CC(=O)N1CCC[C@@H](NC(=O)c2sc3nccc4c3c2NC(=O)N4c2ccc(OC(F)(F)F)cc2)C1` [Example 416, (R)—N-(1-Acryloylpiperidin-3-yl)-4-oxo-5-(4-(trifluoromethoxy)phenyl)-4,5-dihydro-3H-1-thia-3,5,8-triazaacenaphthylene-2-carboxamide], the “BTK_I_binding pIC50” value came to 6.7. Turning to `C=CC(=O)N1CCC[C@@H](NC(=O)c2sc3nccc4c3c2NC(=O)N4c2ccc3ccccc3c2)C1` [Example 419, (R)—N-(1-Acryloylpiperidin-3-yl)-5-(naphthalen-2-yl)-4-oxo-4,5-dihydro-3H-1-thia-3,5,8-triazaacenaphthylene-2-carboxamide], the “BTK_I_binding pIC50” value was 5.7. Same read-out and setting: the figure for `C=CC(=O)N1CCC[C@@H](NC(=O)c2sc3nccc4c3c2NC(=O)N4c2ccn(Cc3ccccc3)n2)C1` [Example 420, (R)—N-(1-Acryloylpiperidin-3-yl)-5-(1-benzyl-1H-pyrazol-3-yl)-4-oxo-4,5-dihydro-3H-1-thia-3,5,8-triazaacenaphthylene-2-carboxamide] is 6.0; for `C=CC(=O)N1CCC[C@@H](NC(=O)c2sc3nccc4c3c2NC(=O)N4c2cccc(-c3ccccc3)c2)C1` [Example 421, (R)-5-([1,1′-Biphenyl]-3-yl)-N-(1-acryloylpiperidin-3-yl)-4-oxo-4,5-dihydro-3H-1-thia-3,5,8-triazaacenaphthylene-2-carboxamide] it is 7.9. In the case of `C=CC(=O)N1CCC[C@@H](NC(=O)c2sc3nccc4c3c2NC(=O)N4c2ccc(Cc3ccccc3)cc2)C1` [Example 422, (R)—N-(1-Acryloylpiperidin-3-yl)-5-(4-benzylphenyl)-4-oxo-4,5-dihydro-3H-1-thia-3,5,8-triazaacenaphthylene-2-carboxamide], the “BTK_I_binding pIC50” value turned out to be 7.5. On the same count and under the same terms, the figure for `C=CC(=O)N1CCC[C@@H](NC(=O)c2sc3nccc4c3c2NC(=O)N4c2ccc(-c3ccccc3)cc2)C1` [Example 423, (R)-5-([1,1′-Biphenyl]-4-yl)-N-(1-acryloylpiperidin-3-yl)-4-oxo-4,5-dihydro-3H-1-thia-3,5,8-triazaacenaphthylene-2-carboxamide] is 6.3.

`CN(C)CC(=O)N1CCC[C@@H](NC(=O)c2sc3nccc4c3c2NC(=O)N4c2ccc(Oc3ccccc3)cc2)C1` [Example 424, (R)—N-(1-(2-(Dimethylamino)acetyl)piperidin-3-yl)-4-oxo-5-(4-phenoxyphenyl)-4,5-dihydro-3H-1-thia-3,5,8-triazaacenaphthylene-2-carboxamide]: the “BTK_I_binding pIC50” value came to 7.2.

As to `CN(C)CC(=O)N1CC[C@@H](NC(=O)c2sc3nccc4c3c2NC(=O)N4c2ccc(Oc3ccccc3)cc2)C1` [Example 425, (R)—N-(1-(2-(Dimethylamino)acetyl)pyrrolidin-3-yl)-4-oxo-5-(4-phenoxyphenyl)-4,5-dihydro-3H-1-thia-3,5,8-triazaacenaphthylene-2-carboxamide], the “BTK_I_binding pIC50” value is given as 7.3. For the compound `O=C(N[C@@H]1CCCNC1)c1sc2nccc3c2c1NC(=O)N3c1cccc(-c2ccccc2)c1` [Example 426, (R)-5-([1,1′-Biphenyl]-3-yl)-4-oxo-N-(piperidin-3-yl)-4,5-dihydro-3H-1-thia-3,5,8-triazaacenaphthylene-2-carboxamide], the “BTK_I_binding pIC50” value was found to be 6.9.
